Values of other authors as cited in patent publication US20210106592A1, “METHODS AND COMPOSITIONS FOR THE TREATMENT OF TRAUMATIC BRAIN INJURY (TBI) AND RELATED DISORDERS” (priority 2017, published 2021).

What was measured:
noradrenaline reuptake = noradrenaline reuptake (Homo sapiens, UniProt P23975)
cholinergic receptors = conditions: in vitro; last in the decreasing order H1, H2 > 5-HT2 > D2, D1 > a1 > cholinergic
[1] = tested on: generalized anxiety disorders; conditions: patients with generalized anxiety disorders; versus placebo and alprazolam
[2] = target: serotonin (5-HT) reuptake (Homo sapiens, UniProt P31645)
sigma = conditions: recent basic research

noradrenaline reuptake, sequence (P23975 whole entry): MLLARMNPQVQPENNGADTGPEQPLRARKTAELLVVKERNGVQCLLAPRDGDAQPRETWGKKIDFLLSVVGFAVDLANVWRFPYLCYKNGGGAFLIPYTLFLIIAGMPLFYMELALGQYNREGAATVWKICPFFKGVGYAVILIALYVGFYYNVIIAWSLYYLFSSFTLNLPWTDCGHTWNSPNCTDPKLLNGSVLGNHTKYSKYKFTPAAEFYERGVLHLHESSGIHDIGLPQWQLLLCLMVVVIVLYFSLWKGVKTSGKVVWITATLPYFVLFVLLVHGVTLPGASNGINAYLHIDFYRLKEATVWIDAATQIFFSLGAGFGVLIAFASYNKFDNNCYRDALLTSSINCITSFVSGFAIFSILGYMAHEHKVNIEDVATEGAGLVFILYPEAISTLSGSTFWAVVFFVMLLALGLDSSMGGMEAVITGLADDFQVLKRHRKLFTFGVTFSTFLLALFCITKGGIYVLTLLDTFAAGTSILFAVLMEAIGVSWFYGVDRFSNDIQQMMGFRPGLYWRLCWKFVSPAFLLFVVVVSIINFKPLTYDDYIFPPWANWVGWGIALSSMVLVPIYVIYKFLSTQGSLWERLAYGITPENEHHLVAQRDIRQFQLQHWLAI
serotonin (5-HT) reuptake, sequence (P31645 whole entry): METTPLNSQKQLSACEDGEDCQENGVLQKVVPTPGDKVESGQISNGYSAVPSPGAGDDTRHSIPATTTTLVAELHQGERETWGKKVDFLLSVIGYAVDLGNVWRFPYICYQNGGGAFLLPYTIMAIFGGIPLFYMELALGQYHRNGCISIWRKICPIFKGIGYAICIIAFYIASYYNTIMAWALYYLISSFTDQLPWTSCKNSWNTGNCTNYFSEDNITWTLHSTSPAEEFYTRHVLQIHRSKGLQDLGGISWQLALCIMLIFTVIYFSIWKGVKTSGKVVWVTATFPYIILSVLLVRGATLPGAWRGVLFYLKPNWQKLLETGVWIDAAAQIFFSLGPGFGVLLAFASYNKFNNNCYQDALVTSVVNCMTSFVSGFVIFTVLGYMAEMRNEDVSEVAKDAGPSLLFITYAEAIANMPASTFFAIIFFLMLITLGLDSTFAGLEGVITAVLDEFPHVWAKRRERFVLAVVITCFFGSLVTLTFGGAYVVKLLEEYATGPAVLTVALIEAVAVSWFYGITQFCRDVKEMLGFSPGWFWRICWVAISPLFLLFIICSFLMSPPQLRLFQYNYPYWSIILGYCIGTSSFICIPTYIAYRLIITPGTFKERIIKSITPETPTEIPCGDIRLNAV

Q: Which “reuptake inhibiting properties for noradrenaline” value (noradrenaline reuptake) does the source give for `Cl.Cl.OCCN1CCN(CCCN2c3ccccc3C=Cc3ccccc32)CC1` [opipramol, 4-[3-(5H-dibenz[b,f]-azepine-5-yl)-propyl]-1-piperazine-ethanol dihydrochloride] here?
A: Its value is “without reuptake inhibiting properties”.

Q: And the “blockade of cholinergic receptors” value (cholinergic receptors)?
A: The value was “very weakly”.

Q: And the anxiolytic efficacy [1]?
A: The anxiolytic efficacy was “superiority over placebo and similar efficacy to alprazolam”.

Q: And the “reuptake inhibiting properties for serotonin (5-HT)” value [2]?
A: The value was “without reuptake inhibiting properties”.

Q: And the sigma ligand strength (sigma)?
A: The sigma ligand strength was “strong sigma ligand”.
